Measured values taken from ChEMBL document CHEMBL3046079, “Synthesis, herbicidal activity, and mode of action of IR 5790” (J Agric Food Chem, 2001).
Calls of active or inactive are those of the source. The calls are words filed in the database; no cut-off is given here.

What was measured:
Geranium dissectum = assay: Pre-emergence herbicidal activity against Geranium dissectum assessed as injury at 50 g/ha applied at 24 hr post-sowing measured after 28 days relative to control; type: functional
[1] = biological target: T1, Putative protoporphyrinogen IX oxidase (Cucumis sativus) (UniProt C6L817); assay: Inhibition of protoporphyrin oxidase in Cucumis sativus (cucumber) cotyledon disc assessed as light-dependent membrane damage at 100 uM incubated for 20 hr in dark followed by 8 hr in presence of light measured as electrolyte leakage relative to control
T1 sequence (whole entry): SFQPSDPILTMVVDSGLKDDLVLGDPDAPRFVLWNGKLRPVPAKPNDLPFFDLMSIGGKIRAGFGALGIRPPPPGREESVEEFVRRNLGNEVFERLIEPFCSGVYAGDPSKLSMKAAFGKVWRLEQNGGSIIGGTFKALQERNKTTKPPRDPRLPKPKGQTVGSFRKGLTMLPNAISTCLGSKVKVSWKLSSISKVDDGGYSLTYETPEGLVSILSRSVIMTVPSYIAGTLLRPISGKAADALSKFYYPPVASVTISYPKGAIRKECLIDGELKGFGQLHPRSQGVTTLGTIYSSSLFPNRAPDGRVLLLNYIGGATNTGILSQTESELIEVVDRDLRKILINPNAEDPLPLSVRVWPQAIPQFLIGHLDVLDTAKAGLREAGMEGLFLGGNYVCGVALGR

Avena fatua = assay: Pre-emergence herbicidal activity against Avena fatua assessed as injury at 50 g/ha applied at 24 hr post-sowing measured after 28 days relative to control; type: functional
Oryza sativa = assay: Phytotoxicity against Oryza sativa (rice) assessed as injury at 50 g/ha applied as post-emergent treatment at 15 days post-sowing measured after 15 days relative to control; type: organism-based; details: in vivo, other, 360 h
Matricaria chamomilla = assay: Pre-emergence herbicidal activity against Matricaria chamomilla assessed as injury at 150 g/ha applied at 24 hr post-sowing measured after 28 days relative to control; type: functional
Xanthium strumarium [2] = assay: Pre-emergence herbicidal activity against Xanthium strumarium (cocklebur) assessed as injury at 50 g/ha applied at 24 hr post-sowing measured after 28 days relative to control; type: functional
Digitaria sanguinalis = assay: Post-emergence herbicidal activity against Digitaria sanguinalis (hairy crabgrass) assessed as injury at 50 g/ha applied at 15 days post-sowing measured after 15 days relative to control; type: functional
Portulaca oleracea = assay: Post-emergence herbicidal activity against Portulaca oleracea assessed as injury at 150 g/ha applied at 15 days post-sowing measured after 15 days relative to control; type: functional
Amaranthus retroflexus = assay: Post-emergence herbicidal activity against Amaranthus retroflexus assessed as injury at 150 g/ha applied at 15 days post-sowing measured after 15 days relative to control; type: functional
Xanthium strumarium [3] = assay: Post-emergence herbicidal activity against Xanthium strumarium (cocklebur) assessed as injury at 50 g/ha applied at 15 days post-sowing measured after 15 days relative to control; type: functional
Echinochloa crus-galli = assay: Post-emergence herbicidal activity against Echinochloa crus-galli (barnyard grass) assessed as injury at 50 g/ha applied at 15 days post-sowing measured after 15 days relative to control; type: functional
Chenopodium album = assay: Pre-emergence herbicidal activity against Chenopodium album assessed as injury at 150 g/ha applied at 24 hr post-sowing measured after 28 days relative to control; type: functional
Zea mays = assay: Phytotoxicity against Zea mays (maize) assessed as injury at 50 g/ha applied as post-emergent treatment at 15 days post-sowing measured after 15 days relative to control; type: organism-based; details: in vivo, other, 360 h
[4] = biological target: T1, Putative protoporphyrinogen IX oxidase (Cucumis sativus); assay: Inhibition of protoporphyrin oxidase in Cucumis sativus (cucumber) cotyledon disc assessed as light-dependent membrane damage at 1 uM incubated for 20 hr in dark followed by 8 hr in presence of light measured as electrolyte leakage relative to control

`C#CCOc1cc(-n2nc(C(C)(C)C)sc2=O)c(Cl)cc1Cl` was tested, and the Activity (Geranium dissectum) was 0%, the inhibition [1] was 90% and the Activity (Avena fatua) was 0%. For the same molecule, the Activity (Oryza sativa) was 0%, the Activity (Matricaria chamomilla) was 50% and the Activity (Xanthium strumarium [2]) was 0%. For the same molecule, the Activity (Digitaria sanguinalis) was 50%, the Activity (Portulaca oleracea) was 90% and the Activity (Amaranthus retroflexus) was 90%. The Activity (Xanthium strumarium [3]) was 10%, the Activity (Echinochloa crus-galli) was 0% and the Activity (Chenopodium album) was 90%. For the same molecule, the Activity (Zea mays) was 0% and the inhibition [4] was “inactive”.
